Source: article PMC12116762, “Topobexin targets the Topoisomerase II ATPase domain for beta isoform-selective inhibition and anthracycline cardioprotection” (Nature Communications, 2025)
pIC50: −log10 of the molar value. “And” between values parts separate entries of the source, which are not always exact repeats. Identical values can stand only once.

Columns and labels:
HL-60 cell line = assay: Antiproliferative activity and interference with DAU (MTT), HL-60; format: cell-based, human; settings: for HL-60 proliferation (MTT), mean of independent replicates: Suppl.Fig.8c
Procedure: Antiproliferative effects of studied compounds alone or in combination with DAU were assayed, as described previously, using HL-60 cell line (ATCC® Catalog Number: CCL-240TM, lot 5036502; American Type Culture Collection, Manassas, VA) derived from a patient with acute promyelocytic leukaemia. The cells were cultured in RPMI-1640 medium supplemented with 10% FBS, 50 U/mL penicillin, and 50 μg/mL streptomycin solution at 37 °C in a humidified atmosphere of 5% CO2. For the experiments, cells were seeded on 96-well plates (TPP, Switzerland) at a density of 10,000 cells per well ([…]). […] Proliferation was assessed by the MTT assay. Briefly, 25 µL of 3 mg/mL MTT solution (3(4,5-dimethyl-2-thiazolyl)-2,5-diphenyl-2H-tetrazolium bromide) in PBS was added to each well, and after 2 h of incubation at 37 °C the cells were lysed with lysis buffer (isopropanol, 0.1 M HCl, 5% Triton X-100) for 30 minutes at RT. After the formazan was dissolved, the absorbance of the samples was measured at 570 nm and a reference wavelength at 690 nm (the 690 nm background absorbance was subtracted from the 570 nm values). Data are expressed as mean ± SD from four independent experiments. Normalized values were plotted as a function of inhibitor concentration to determine IC50 values using Prism 9 (GraphPad). Statistical significance was evaluated by ANOVA with the Holm-Sidak post hoc test (P ≤ 0.05, marked as significant difference against control (c) or DAU (d)).

TOP2B C88Y = biological target: T1, TOP2B C88Y (Homo sapiens, UniProt Q02880, C93Y); assay: ATPase activity of TOP2B C88Y mutant; format: biochemical; settings: for effect of C88Y mutation in TOP2B on inhibition: vs TOP2B WT
T1 construct: Using recombinant full-length human TOP2A and TOP2B enzymes; YFP (N, cleaved yes); made in house; host or cells: HEK293F
Procedure: The human topoisomerase II decatenation assay was performed to determine the inhibitory effects of BNS-22 and new compounds as previously described with minor modifications[14],[36]. The assay was performed using recombinant human TOP2A or TOP2B generated using the HEK293F YFP-tag expression system as previously described[18],[19],[36]. Briefly, plasmids encoding YFP-TOP2A or YFP-TOP2B were transfected into HEK293F cells (Catalog number 11625019, Thermofisher Scientific), and TOP2 proteins were isolated from cell lysates by anti-YFP nanobody affinity chromatography. After elution by TEV protease cleavage, TOP2 proteins were FPLC purified by sequential cation exchange and size exclusion chromatography. Plasmid encoding TOP2B C88Y was generated by round-the-horn PCR mutagenesis and the sequence was verified by full-plasmid sequencing. Purified TOP2 proteins were stored in a storage buffer containing 20 mM HEPES pH 7.5, 500 mM NaCl, 0.5 mM TCEP, 25% (v/v) glycerol at -80 °C. For decatenation assays, purified TOP2 proteins were incubated with 200 ng kDNA (Topogen) in a reaction buffer containing 50 mM Tris−HCl (pH 8), 100 mM NaCl, 10 mM MgCl2, 0.5 mM DTT, 2 mM ATP, 0.1 mM tris(2-carboxyethyl)phosphine (TCEP), 5% (v/v) glycerol, 70 μg/mL bovine serum albumin, and 1/10 volume of each compound diluted in 10% DMSO (final DMSO concentration 1%) for 40 min at 37 °C. The reaction was then stopped by the addition of gel loading buffer (0.5 volumes of 60% (w/v) glycerol, 60 mM EDTA, 20 mM Tris−HCl (pH 7.5), 0.5 mg/mL bromophenol blue) and the samples were placed on ice. Reaction products were resolved by agarose gel electrophoresis in TBE buffer containing GelRed stain (Biotium). Gels were visualized using an iBright CL1000 (Thermofisher Scientific). Band intensities were quantified using FIJI, and the signal of the treated samples was normalized to the value of the control (untreated sample; 100%) present on the same gel. The normalized signal of three independent measurements was then expressed as mean ± SD. Each presented data point was obtained from distinct sample. Normalized values were plotted as a function of inhibitor concentration to determine IC50 values by nonlinear regression with variable slope using Prism 9 (GraphPad).
Topoisomerase proteins were diluted to 500 nM in storage buffer containing 20 mM HEPES pH 7.5, 500 mM NaCl, 0.5 mM TCEP, 25% glycerol, and 0.2 mg/mL BSA prior to use. A coupled assay was used to measure TOP2-catalyzed ATP hydrolysis in vitro[37] in Costar 96-well plates (Corning Incorporated). […] Reaction plates were pre-warmed to 30 °C for 5 min and ATP was added last to initiate the reaction. The reaction plate was placed in a CLARIOstarPlus plate reader (BMG Labtech) to measure NADH fluorescence at 30 °C every 30 s over 120 cycles using a 340-60 excitation filter and a 480-100 emission filter. Background fluorescence signals calculated from wells containing no ATP were subtracted from each measurement. The slope of NADH fluorescence decay in each well was calculated using the MARS software (BMG Labtech) and reaction wells that lacked topoisomerase inhibitor to account for photobleaching of NADH fluorescence served as background subtraction. Each presented data point was obtained from distinct sample. Values were normalized to untreated controls and plotted as a function of inhibitor concentration to determine IC50 values using Prism 9 (GraphPad).

caspase 3/7 = assay: Caspase 3/7 activity in NVCM (Caspase-Glo); format: cell-based, rat; settings: for Csp3/7 activity: independent replicates
Procedure: Caspase activity was assessed on NVCM cells using luciferase-based kits for caspase 3/7, 8 and 9 (Caspase-Glo® 3/7, 8 and 9 assay systems; Promega) according to the manufacturer’s instructions on 384-well plates (Greiner Bio-One). Luminescence signal was measured using Tecan M200 multifunctional plate-reader. All measured groups were corrected for total protein concentration (BCA assay) and were expressed as fold change of the signal over corresponding untreated control group. Each presented data point was obtained from distinct sample. Statistical significance was determined using ratio paired t-test, two-tailed.

γH2AX = γH2AX levels in HL-60 cells (Western blotting); format: cell-based, human; settings: for γH2AX level, mean of independent replicates: Suppl.Fig.8d

T1 sequence (Q02880 1-1621 isoform Q02880-2 C88Y): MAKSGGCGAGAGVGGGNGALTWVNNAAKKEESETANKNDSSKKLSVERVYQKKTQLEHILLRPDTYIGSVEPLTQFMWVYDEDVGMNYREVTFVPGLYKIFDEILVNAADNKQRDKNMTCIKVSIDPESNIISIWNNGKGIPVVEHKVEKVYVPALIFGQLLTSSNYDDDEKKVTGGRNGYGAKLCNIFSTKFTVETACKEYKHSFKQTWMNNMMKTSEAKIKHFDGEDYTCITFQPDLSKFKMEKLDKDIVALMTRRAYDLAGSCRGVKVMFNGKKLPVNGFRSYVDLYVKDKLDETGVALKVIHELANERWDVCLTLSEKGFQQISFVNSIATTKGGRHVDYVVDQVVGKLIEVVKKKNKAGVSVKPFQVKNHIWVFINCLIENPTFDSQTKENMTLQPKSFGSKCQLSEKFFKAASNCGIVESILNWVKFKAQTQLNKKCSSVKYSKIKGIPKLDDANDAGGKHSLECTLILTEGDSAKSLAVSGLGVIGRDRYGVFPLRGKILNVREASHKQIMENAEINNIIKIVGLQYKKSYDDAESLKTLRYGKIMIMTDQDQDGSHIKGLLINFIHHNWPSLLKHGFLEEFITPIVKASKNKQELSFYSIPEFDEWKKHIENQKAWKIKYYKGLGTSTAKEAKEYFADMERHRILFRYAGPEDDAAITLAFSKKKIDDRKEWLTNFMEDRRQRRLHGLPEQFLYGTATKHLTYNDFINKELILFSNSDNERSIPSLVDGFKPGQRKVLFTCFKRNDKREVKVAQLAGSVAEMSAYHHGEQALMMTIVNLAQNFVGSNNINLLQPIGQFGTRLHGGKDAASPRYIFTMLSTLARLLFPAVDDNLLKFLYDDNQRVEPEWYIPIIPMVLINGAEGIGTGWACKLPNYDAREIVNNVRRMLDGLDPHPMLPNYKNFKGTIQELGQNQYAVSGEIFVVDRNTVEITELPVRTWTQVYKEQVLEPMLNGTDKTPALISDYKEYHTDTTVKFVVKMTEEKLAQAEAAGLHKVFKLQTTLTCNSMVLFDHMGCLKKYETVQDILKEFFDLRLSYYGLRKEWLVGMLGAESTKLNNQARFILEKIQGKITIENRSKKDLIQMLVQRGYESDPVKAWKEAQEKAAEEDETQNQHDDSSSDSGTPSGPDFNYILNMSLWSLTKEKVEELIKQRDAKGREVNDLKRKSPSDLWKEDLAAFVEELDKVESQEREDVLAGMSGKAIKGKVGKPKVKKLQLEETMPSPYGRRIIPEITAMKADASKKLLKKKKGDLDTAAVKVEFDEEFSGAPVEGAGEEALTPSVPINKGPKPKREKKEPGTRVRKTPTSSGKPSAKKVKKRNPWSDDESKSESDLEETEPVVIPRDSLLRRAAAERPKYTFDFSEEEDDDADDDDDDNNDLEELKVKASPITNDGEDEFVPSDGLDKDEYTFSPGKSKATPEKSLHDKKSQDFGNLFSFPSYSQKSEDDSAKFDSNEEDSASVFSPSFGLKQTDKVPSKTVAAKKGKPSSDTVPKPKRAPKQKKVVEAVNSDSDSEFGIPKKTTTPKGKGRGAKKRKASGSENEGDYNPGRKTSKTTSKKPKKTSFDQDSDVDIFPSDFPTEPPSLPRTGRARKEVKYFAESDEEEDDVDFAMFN

In the case of `CCCc1cc(=O)oc2c(C(=O)N3CCCc4ccccc43)c(OCCN3CCN(C)CC3)ccc12` [topobexin (9)], the “effect on antiproliferative effects of DAU” value (HL-60 cell line; HL-60, any concentration tested) was “did not decrease the antiproliferative effects of DAU”, the “HL-60 proliferation (MTT), mean of independent replicates” value (“HL-60 proliferation (MTT), mean” for short) (HL-60 cell line; compound 0.01 µM + DAU 1.2 µM) was 39.4171 and the “HL-60 proliferation (MTT), mean” value (HL-60 cell line; compound 0.1 µM + DAU 1.2 µM) was 37.298. The “HL-60 proliferation (MTT), mean” value (HL-60 cell line; compound 1 µM + DAU 1.2 µM) was 37.3478, the “HL-60 proliferation (MTT), mean” value (HL-60 cell line; compound 10 µM + DAU 1.2 µM) was 18.3679 and the “HL-60 proliferation (MTT), mean” value (HL-60 cell line; compound 30 µM + DAU 1.2 µM) was 13.5189. The “HL-60 proliferation (MTT), mean” value (HL-60 cell line; compound 100 µM + DAU 1.2 µM) was 1.772, the “HL-60 proliferation (MTT), mean” value (HL-60 cell line; compound alone 0.01 µM) was 99.5782 and the “HL-60 proliferation (MTT), mean” value (HL-60 cell line; compound alone 0.1 µM) was 97.2193. The “HL-60 proliferation (MTT), mean” value (HL-60 cell line; compound alone 1 µM) was 91.5968, the “HL-60 proliferation (MTT), mean” value (HL-60 cell line; compound alone 10 µM) was 13.6521 and the “HL-60 proliferation (MTT), mean” value (HL-60 cell line; compound alone 30 µM) was 12.3063. The “HL-60 proliferation (MTT), mean” value (HL-60 cell line; compound alone 100 µM) was 1.671, the pIC50 (TOP2B C88Y) was 5.73 and the remaining activity at 0.0625 µM (TOP2B C88Y; 0.0625 μM, independent replicates, normalized to 0 drug) was 98.2%. The remaining activity at 0.125 µM (TOP2B C88Y; 0.125 μM, independent replicates, normalized to 0 drug) was 97.9%, the remaining activity at 0.25 µM (TOP2B C88Y; 0.25 μM, independent replicates, normalized to 0 drug) was 95.9% and the remaining activity at 0.5 µM (TOP2B C88Y; 0.5 μM, independent replicates, normalized to 0 drug) was 84.7%. The remaining activity at 1 µM (TOP2B C88Y; 1 μM, independent replicates, normalized to 0 drug) was 69.3%, the remaining activity at 2 µM (TOP2B C88Y; 2 μM, independent replicates, normalized to 0 drug) was 43.5% and the remaining activity at 4 µM (TOP2B C88Y; 4 μM, independent replicates, normalized to 0 drug) was 18.5%. The remaining activity at 8 µM (TOP2B C88Y; 8 μM, independent replicates, normalized to 0 drug) was 6.37%, the “effect of C88Y mutation in TOP2B on inhibition” value (TOP2B C88Y) was “conferred significant resistance to inhibition” and the “Csp3/7 activity, mean” value (caspase 3/7; Cmpd 9 10 μM + DAU 1.2 μM) was 1.924 fold change. For the same compound, the Csp3/7 activity (caspase 3/7; Cmpd 9 10 μM + DAU 1.2 μM) was 1.455 fold change and 1.638 fold change and 2.77 fold change and 1.323 fold change and 2.6893 fold change and 1.665 fold change, the “Csp3/7 activity, mean” value (caspase 3/7; Cmpd 9 10 μM alone) was 0.9751 fold change and the Csp3/7 activity (caspase 3/7; Cmpd 9 10 μM alone) was 1.249 fold change and 1.002 fold change and 1.008 fold change and 0.6241 fold change and 0.959 fold change and 1.009 fold change. For the same compound, the “DAU-induced apoptotic signaling by caspases 3/7, 8, and 9” value (caspase 3/7; NVCM) was “reduces DAU-induced apoptotic signaling”, the “concentration with statistically significant decrease in γH2AX levels” value (γH2AX; HL-60, DAU, highest concentration tested) was 10 µM and the “γH2AX level, mean of independent replicates” value (from here on “γH2AX level, mean”) (γH2AX; compound 0.1 µM + DAU 1.2 µM, DAU mean = 100) was 85.0292. For the same compound, the “γH2AX level, mean” value (γH2AX; compound 0.3 µM + DAU 1.2 µM, DAU mean = 100) was 71.0118, the “γH2AX level, mean” value (γH2AX; compound 1 µM + DAU 1.2 µM, DAU mean = 100) was 59.3884 and the “γH2AX level, mean” value (γH2AX; compound 3 µM + DAU 1.2 µM, DAU mean = 100) was 59.6746. For the same compound, the “γH2AX level, mean” value (γH2AX; compound 10 µM + DAU 1.2 µM, DAU mean = 100) was 31.6085, the “γH2AX level, mean” value (γH2AX; compound alone 0.1 µM, DAU mean = 100) was 21.4098 and the “γH2AX level, mean” value (γH2AX; compound alone 0.3 µM, DAU mean = 100) was 25.2396. For the same compound, the “γH2AX level, mean” value (γH2AX; compound alone 1 µM, DAU mean = 100) was 23.449, the “γH2AX level, mean” value (γH2AX; compound alone 3 µM, DAU mean = 100) was 19.8181 and the “γH2AX level, mean” value (γH2AX; compound alone 10 µM, DAU mean = 100) was 24.2375.
For `COc1cccc2c1C(=O)c1c(O)c3c(c(O)c1C2=O)C[C@@](O)(C(C)=O)C[C@@H]3O[C@H]1C[C@H](N)[C@H](O)[C@H](C)O1` [DAU, daunorubicin, reference compound], the “HL-60 proliferation (MTT), mean” value (HL-60 cell line; DAU 1.2 µM alone) was 35.1587, the “Csp3/7 activity, mean” value (caspase 3/7; DAU 1.2 μM alone) was 3.236 fold change and the Csp3/7 activity (caspase 3/7; DAU 1.2 μM alone) was 2.392 fold change and 2.445 fold change and 4.746 fold change and 2.53 fold change and 4.167 fold change and 3.136 fold change. The “γH2AX level, mean” value (γH2AX; DAU 1.2 µM alone (mean = 100)) was 100.
In the case of `CCCc1cc(=O)oc2c(C(=O)N3CCCc4ccccc43)c(OC)cc(OC)c12` [BNS-22], the pIC50 (TOP2B C88Y) was 5.81 and the “effect of C88Y mutation in TOP2B on inhibition” value (TOP2B C88Y) was “did not alter inhibition”.
